Assay results taken from patent US6344208B1, “Pheromone baits for social insects” (priority 1989, dated 2002).

Tests used:
Format in all cases: in vivo
Acromyrmex octospinosus = assay: Research and laboratory trials on behaviour induced by synthetic alarm pheromone components; conditions: research by the applicant
Description: Recent research by the applicant on the neotropical leaf-cutting ant Acromyrmex octospinosus has shown that […] components of the alarm pheromone of this ant, namely 3-octanol and 3-octanone, attract nestmates and induce the laying of trails around the source which ensure that nestmates are then attracted towards the source for some time and attack the source on arrival.
It is expected that this surprising effect will be shown by synthetic components of pheromones of other insects, especially social insects.
The synthetic pheromone compounds may therefore be used in food baits in contrast to what would be expected.

Atta sexdens [1] = assay: Field Trial 3: Mirex sachets with single pheromone component placed 1 metre from nest entrance on active trails; conditions: Trial 3, 50 μl component on rubber septum, components tested separately
Protocol: (§1) The insecticide bait Mirex was used in all the trials. In Trials 3 and 4 the bait was presented to the ants in black plastic sachets 8 cm^2 placed inside wire cages, which provided protection from cattle, horses, small manamals and birds. The empty cages were placed in the field 24 hours prior to the start of the experiment. The Mire sachets were prepared and a component of mandibular gland alarm pheromone of the ant species concerned was added to the treatment sachets. In Trial 5 the sachets were not placed in cages but were scattered randomly at the cutting site. Five components or the alarm pheromone were tested. Rubber septa, used to provide a slow-release substrate, were dosed with 50 μl of component and then sealed inside the Mirex sachets. Control sachets were sealed with untreated rubber septa. The sachets were transferred immediately to the field sites. The fate of the sachets was then monitored over a 3 day period.
Trial 3: Sachets were placed 1 metre from the nest entrance hole on active trials of A. sexdens. Five synthetic components of the alarm pheromone were tested, separately; citral, farnesol, 6-methyl-5-hepten-2-one, 4-methyl-3-heptanone and geraniol. […] The results for the five synthetic pheromones were pooled.

Atta sexdens [2] = assay: Field Trial 5: Mirex sachets with single pheromone component scattered randomly at cutting site; conditions: Trial 5, 50 μl component; for discovery and opening of sachets: sachets over about 10 m^2 where ants were cutting leaves
Protocol: as §1
Trial 5: Sachets containing, separately, citral (E), 4-methyl-3-heptanone H and 6-methyl-5-hepten-2-one (G) were distributed randomly over an area of about 10 m^2 where ants were actively cutting leaves.

Row | Structure (SMILES) | behaviour induced in nestmates by the alarm pheromone component (Acromyrmex octospinosus) | fate of test sachets (Atta sexdens [1]) | time until all the bait had been transported back to the nest (Atta sexdens [2]) [min] | discovery and opening of sachets (Atta sexdens [2])
1 | CCCCCC(O)CC (centres unmarked) [3-octanol] | mainly controls attraction to the source, the laying of pheromone trails radiating out from the source, and biting |  |  | 
2 | CCCCCC(=O)CC [3-octanone] | mainly causes recruitment of ants from the peripheral area |  |  | 
3 | CCCC(C)C(=O)CC (centres unmarked) [4-methyl-3-heptanone] |  | cut open and the contents transported into the nest | ≤ 30 | discovered and opened immediately
4 | CC(=O)CCC=C(C)C [6-methyl-5-hepten-2-one] |  | cut open and the contents transported into the nest |  | discovered and opened immediately
5 | CC(C)=CCCC(C)=CC=O [citral] |  | cut open and the contents transported into the nest |  | discovered and opened immediately
6 | CC(C)=CCCC(C)=CCCC(C)=CCO [farnesol] |  | cut open and the contents transported into the nest |  | 
7 | CC(C)=CCC/C(C)=C/CO [geraniol] |  | cut open and the contents transported into the nest |  | 
